From patent US7303762B2, “Absorption enhancers” (Axcess Limited, priority 2000, dated 2007) come the findings set out here.

Test [1] in a line: Plasma glucose after intra-jejunal administration of insulin capsules to conscious pigs. Type of test: in vivo. The note with it: one capsule. On the procedure:
Formulations prepared as described in examples 1 and 2 were administered (one capsule per animal) directly to the intestine of conscious pigs (40 to 60 kg) via an in-dwelling stoma implanted surgically in the jejunum. Before and after administration, at the intervals shown, blood samples were taken for analysis of blood glucose levels. As a control, capsules containing 200 iu of unformulated insulin were also administered intra-jejunally.

The subject of a further test is Caco-2 cells. The test can be described thus: Trans-epithelial electrical resistance (TEER) across Caco-2 mono-layer. Type of test: cell-based, human. The note with it: four replicates. Here is the method:
Caco-2 cells (a cell-line derived from human colon adenocarcinoma) were grown as a confluent mono-layer on the surface of a porous membrane (pore size 0.4 μm, surface area 0.33 cm^2) separating two aqueous compartments, the upper compartment filled with 200 μl of culture medium, and the lower compartment containing 600 μl. Electrical resistance across the mono-layer was measured using an epithelial voltohmeter connected to electrodes inserted into the medium on either side of the mono-layer in the upper and lower compartments. This trans-epithelial electrical resistance (TEER) was measured immediately before, and 15 minutes after the addition of aromatic alcohols to the upper compartment (see Table 6 below). Use of the compounds diluted two to four-fold below those concentrations shown eliminates the falls in electrical resistance observed. Fall in TEER is considered indicative of the appearance of aqueous channels between cells, and is evidence that the mechanism of action of the aromatic alcohols tested, in exerting their absorption enhancing activity, is via opening or loosening of tight junctions between intestinal cells.

Consider “Control (unformulated insulin): capsules containing 200 iu of unformulated insulin administered intra-jejunally”, for which the “Changes in plasma glucose” value is 0.01 + 0.24 mmol/l in test [1] (15 minutes, + s.d.); −0.05 + 0.21 mmol/l in test [1] (30 minutes, + s.d.); −0.06 + 0.17 mmol/l in test [1] (45 minutes, + s.d.); −0.32 + 0.23 mmol/l in test [1] (60 minutes, + s.d.); −0.17 + 0.21 mmol/l in test [1] (90 minutes, + s.d.); −0.22 + 0.32 mmol/l in test [1] (120 minutes, + s.d.). The “Changes in plasma glucose” value was −0.13 + 0.21 mmol/l in test [1] (180 minutes, + s.d.); −0.34 + 0.32 mmol/l in test [1] (240 minutes, + s.d.); 0.00 mmol/L in test [1] (time −10 minutes).
Turning to `OCc1ccccc1` [Benzyl alcohol], the “TEER 15 minutes after” value in the test on Caco-2 cells (15 minutes after addition to upper compartment, concentration 40 μl/ml) is −1.6 ± 3.2 ohm · cm^2. For the same molecule, the “TEER Before addition” value in the test on Caco-2 cells (immediately before addition of agent) is reported as 447.2 ± 76.9 ohm · cm^2.
